From PubChem BioAssay (NCI)
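Step 1: Grow cells in 96-well plates. Step 2: Expose to compound for 48 hours at 5 concentrations. Step 3: Interpolate endpoints linearly; if unreached, use highest concentration. TGI denotes the concentration required for complete inhibition of growth.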

Columns and labels:
Experiment in all cases: inhibition of tumour cell growth, NCI panel, 48 h
[1] = test system: 786-0 renal
[2] = test system: A549 NSCLC
[3] = test system: ACHN renal
[4] = test system: BT-549 breast
[5] = test system: CAKI-1 renal
[6] = test system: CCRF-CEM leukemia
[7] = test system: COLO 205 colon
[8] = test system: DU-145 prostate
[9] = test system: EKVX NSCLC
[10] = test system: HCC-2998 colon
[11] = test system: HCT-116 colon
[12] = test system: HCT-15 colon
[13] = test system: HL-60(TB) leukemia
[14] = test system: HOP-62 NSCLC
[15] = test system: HOP-92 NSCLC
[16] = test system: HS 578T breast
[17] = test system: HT29 colon
[18] = test system: IGROV1 ovarian
[19] = test system: KM12 colon
[20] = test system: LOX IMVI melanoma
[21] = test system: M14 melanoma
[22] = test system: MALME-3M melanoma
[23] = test system: MCF7 breast
[24] = test system: MDA-MB-231 breast
[25] = test system: MDA-MB-435
[26] = test system: MDA-N
[27] = test system: MOLT-4 leukemia
[28] = test system: NCI-H226 lung
[29] = test system: NCI-H23 lung
[30] = test system: NCI-H460 lung
[31] = test system: NCI-H522 lung
[32] = test system: NCI/ADR-RES ovarian
[33] = test system: OVCAR-3 ovarian
[34] = test system: OVCAR-4 ovarian
[35] = test system: OVCAR-5 ovarian
[36] = test system: OVCAR-8 ovarian
[37] = test system: PC-3 prostate
[38] = test system: RPMI-8226 leukemia
[39] = test system: SF-268 CNS
[40] = test system: SF-295 CNS
[41] = test system: SF-539 CNS
[42] = test system: SK-MEL-2 melanoma
[43] = test system: SK-MEL-28 melanoma
[44] = test system: SK-OV-3 ovarian
[45] = test system: SN12C renal
[46] = test system: SNB-19 CNS
[47] = test system: SNB-75 CNS
[48] = test system: SR leukemia
[49] = test system: SW-620 colon
[50] = test system: TK-10 renal
[51] = test system: U251 CNS
[52] = test system: UACC-257 melanoma
[53] = test system: UACC-62 melanoma
[54] = test system: UO-31 renal
[55] = test system: A498 renal
[56] = test system: K-562 leukemia
[57] = test system: RXF 393 renal
[58] = test system: SK-MEL-5 melanoma
[59] = test system: T-47D breast

For `O=C1C=C(Sc2ccccc2)c2nccc3c2c1nc1ccccc13`, the TGI [1] was 49.6 µM, the TGI [2] was over 100 µM and the TGI [3] was 54.8 µM. It also gave a TGI [4] of 31.4 µM, a TGI [5] of over 100 µM and a TGI [6] of 12.3 µM. It also gave a TGI [7] of 31.5 µM, a TGI [8] of over 100 µM and a TGI [9] of 41 µM. The TGI [10] was 37.8 µM, the TGI [11] was 30.3 µM and the TGI [12] was 26 µM. It also gave a TGI [13] of 4.29 µM, a TGI [14] of 32.2 µM and a TGI [15] of 42.3 µM. It also gave a TGI [16] of 46.5 µM, a TGI [17] of 26.8 µM and a TGI [18] of 23.9 µM. For the same molecule, the TGI [19] was 51.6 µM, the TGI [20] was 28.6 µM and the TGI [21] was 31.7 µM. For the same molecule, the TGI [22] was 30 µM, the TGI [23] was 28.7 µM and the TGI [24] was 38 µM. The TGI [25] was 31.2 µM, the TGI [26] was 33.3 µM and the TGI [27] was 23.5 µM. For the same molecule, the TGI [28] was over 100 µM, the TGI [29] was 73.2 µM and the TGI [30] was 84.5 µM. The TGI [31] was 15.8 µM, the TGI [32] was over 100 µM and the TGI [33] was 19.7 µM. For the same molecule, the TGI [34] was 31.4 µM, the TGI [35] was over 100 µM and the TGI [36] was 37.6 µM. It also gave a TGI [37] of 26.2 µM, a TGI [38] of over 100 µM and a TGI [39] of 26.7 µM. The TGI [40] was over 100 µM, the TGI [41] was 31.1 µM and the TGI [42] was 27.3 µM. For the same molecule, the TGI [43] was 38.8 µM, the TGI [44] was over 100 µM and the TGI [45] was 32.2 µM. The TGI [46] was over 100 µM, the TGI [47] was over 100 µM and the TGI [48] was 25.5 µM. It also gave a TGI [49] of 29.7 µM, a TGI [50] of over 100 µM and a TGI [51] of 33.6 µM. For the same molecule, the TGI [52] was 30.6 µM, the TGI [53] was 29.2 µM and the TGI [54] was 27.3 µM.

With `FC(F)(Sc1ccccn1)c1nc2ccccc2o1` the TGI [1] was over 100 µM, the TGI [55] was over 100 µM and the TGI [2] was over 100 µM. For the same molecule, the TGI [3] was over 100 µM, the TGI [4] was over 100 µM and the TGI [5] was over 100 µM. For the same molecule, the TGI [6] was over 100 µM, the TGI [7] was over 100 µM and the TGI [8] was over 100 µM. It also gave a TGI [10] of over 100 µM, a TGI [11] of over 100 µM and a TGI [12] of over 100 µM. The TGI [14] was over 100 µM, the TGI [15] was over 100 µM and the TGI [17] was over 100 µM. For the same molecule, the TGI [18] was over 100 µM, the TGI [56] was over 100 µM and the TGI [19] was over 100 µM. For the same molecule, the TGI [21] was over 100 µM, the TGI [22] was over 100 µM and the TGI [23] was over 100 µM. It also gave a TGI [24] of over 100 µM, a TGI [25] of over 100 µM and a TGI [26] of over 100 µM. For the same molecule, the TGI [27] was over 100 µM, the TGI [28] was over 100 µM and the TGI [29] was over 100 µM. It also gave a TGI [30] of over 100 µM, a TGI [31] of over 100 µM and a TGI [32] of over 100 µM. It also gave a TGI [33] of over 100 µM, a TGI [34] of over 100 µM and a TGI [35] of over 100 µM. For the same molecule, the TGI [36] was over 100 µM, the TGI [37] was over 100 µM and the TGI [38] was over 100 µM. For the same molecule, the TGI [57] was over 100 µM, the TGI [39] was over 100 µM and the TGI [40] was over 100 µM. The TGI [41] was over 100 µM, the TGI [42] was over 100 µM and the TGI [43] was over 100 µM. For the same molecule, the TGI [58] was over 100 µM, the TGI [44] was over 100 µM and the TGI [45] was over 100 µM. It also gave a TGI [48] of over 100 µM, a TGI [49] of over 100 µM and a TGI [59] of over 100 µM. It also gave a TGI [50] of over 100 µM, a TGI [51] of over 100 µM and a TGI [52] of over 100 µM. It also gave a TGI [53] of over 100 µM and a TGI [54] of over 100 µM.
